According to ChEMBL document CHEMBL5154926, “Discovery of a Novel Series of Imipridone Compounds as Homo sapiens Caseinolytic Protease P Agonists with Potent Antitumor Activities In Vitro and In Vivo” (J Med Chem, 2022):
One block for each molecule: values may come before it.

Experiments:
A549 = experiment: Antiproliferative activity against human A549 cells incubated for 48 hrs by CCK-8 assay; format: functional, cell-based; settings: A549, 48 h
DLD-1 = experiment: cells; settings: Homo sapiens, DLD-1, 48 h
Description: Antiproliferative activity against human DLD-1 cells incubated for 48 hrs by CCK-8 assay

HCT-15 = experiment: cells; settings: Homo sapiens, HCT-15, 48 h
Description: Antiproliferative activity against human HCT-15 cells incubated for 48 hrs by CCK-8 assay

[1] = Antiproliferative activity against rat H9c2 cells incubated for 48 hrs by CCK-8 assay; format: toxicity, cell-based
HCT-116 [2] = experiment: Potency index, ratio of ONC201 IC50 to test compound IC50 for antiproliferative activity against human HCT-116 cells by CCK-8 assay; format: functional
Raji = experiment: Antiproliferative activity against human Raji cells incubated for 48 hrs by CCK-8 assay; format: functional, cell-based
[3] = Antiproliferative activity against human HEK293 cells incubated for 48 hrs by CCK-8 assay; format: toxicity, cell-based
U-251 = experiment: Antiproliferative activity against human U-251 cells incubated for 48 hrs by CCK-8 assay; format: functional, cell-based; settings: U-251, 48 h
HCT-116 [4] = experiment: cells; settings: Homo sapiens, HCT-116, 48 h
Description: Antiproliferative activity against human HCT-116 cells incubated for 48 hrs by CCK-8 assay

SW480 = experiment: cells; settings: Homo sapiens, SW480, 48 h
Description: Antiproliferative activity against human SW480 cells incubated for 48 hrs by CCK-8 assay

SW-620 = experiment: cells; settings: Homo sapiens, SW-620, 48 h
Description: Antiproliferative activity against human SW-620 cells incubated for 48 hrs by CCK-8 assay

MDA-MB-231 = experiment: Antiproliferative activity against human MDA-MB-231 cells incubated for 48 hrs by CCK-8 assay; format: functional, cell-based; settings: MDA-MB-231, 48 h
HT-29 = experiment: cells; settings: Homo sapiens, HT-29, 48 h
Description: Antiproliferative activity against human HT-29 cells incubated for 48 hrs by CCK-8 assay

[5] = Oral bioavailability in Sprague-Dawley rat plasma at 15 mg/kg after 0.25 to 24 hrs by LC-MS analysis; format: ADME, organism-based; settings: time 0.25-24 hrs
in vivo [6] = settings: Sprague-Dawley, rat, po, 15 mg/kg
[7] = Tmax in Sprague-Dawley rat plasma at 15 mg/kg, po after 0.25 to 24 hrs by LC-MS analysis; format: ADME, organism-based; settings: time 0.25-24 hrs
in vivo [8] = settings: Sprague-Dawley, rat, iv, 5 mg/kg
[9] = Terminal half life in Sprague-Dawley rat plasma at 5 mg/kg, iv after 0.083 to 24 hrs by LC-MS analysis; format: ADME, organism-based; settings: time 0.083-24 hrs, read-out: beta t1/2 (converted)
[10] = Terminal half life in Sprague-Dawley rat plasma at 15 mg/kg, po after 0.25 to 24 hrs by LC-MS analysis; format: ADME, organism-based; settings: time 0.25-24 hrs, read-out: beta t1/2 (converted)
[11] = MRT (0 to 24 hrs) in Sprague-Dawley rat plasma at 5 mg/kg, iv after 0.083 to 24 hrs by LC-MS analysis; format: ADME, organism-based; settings: time 0.083-24 hrs
[12] = Cmax in Sprague-Dawley rat plasma at 5 mg/kg, iv after 0.083 to 24 hrs by LC-MS analysis; format: ADME, organism-based; parameters: dose 5 mg/kg, time 0.083-24 hrs, route iv
[13] = Clearance in Sprague-Dawley rat plasma at 5 mg/kg, iv after 0.083 to 24 hrs by LC-MS analysis; format: ADME, organism-based; settings: time 0.083-24 hrs
[14] = MRT (0 to 24 hrs) in Sprague-Dawley rat plasma at 15 mg/kg, po after 0.25 to 24 hrs by LC-MS analysis; format: ADME, organism-based; settings: time 0.25-24 hrs
[15] = Cmax in Sprague-Dawley rat plasma at 15 mg/kg, po after 0.25 to 24 hrs by LC-MS analysis; format: ADME, organism-based; parameters: time lower 0.25 hrs, dose 15 mg/kg, time upper 24 hrs, route po
[16] = Acute toxicity in BALB/c mouse assessed as pathological damage in spleen at 100 mg/kg, ig administered as single dose measured after 14 days by hematoxylin and eosin staining method; format: organism-based; settings: in vivo, po, 336 h, time 14 day
[17] = Acute toxicity in BALB/c mouse assessed as pathological damage in lung at 100 mg/kg, ig administered as single dose measured after 14 days by hematoxylin and eosin staining method; format: organism-based; settings: in vivo, po, 336 h, time 14 day
[18] = Acute toxicity in BALB/c mouse assessed as change in UREA in blood at 100 mg/kg, ig administered as single dose measured after 14 days; format: organism-based; settings: in vivo, po, 336 h, time 14 day
[19] = Acute toxicity in BALB/c mouse assessed as change in ALT level in blood at 100 mg/kg, ig administered as single dose measured after 14 days; format: organism-based; settings: in vivo, po, 336 h, time 14 day
[20] = Acute toxicity in BALB/c mouse assessed as change in CKMB level in blood at 100 mg/kg, ig administered as single dose measured after 14 days; format: organism-based; settings: in vivo, po, 336 h, time 14 day
[21] = Acute toxicity in BALB/c mouse assessed as change in CREA level in blood at 100 mg/kg, ig administered as single dose measured after 14 days; format: organism-based; settings: in vivo, po, 336 h, time 14 day
HCT-116 [22] = experiment: Antitumor activity in human HCT-116 cells xenografted in BALB/c nude mouse assessed tumor growth inhibition at 5 mg/kg, po administered twice a week for 19 days and measured every other day; format: functional; settings: HCT-116, 456 h, time 19 day, read-out: TGI
[23] = Toxicity in BALB/c nude mouse xenografted with human HCT-116 cells assessed as body weight loss at 10 mg/kg, po administered twice a week for 19 days and measured every other day; format: organism-based; settings: in vivo, 456 h, time 19 day
[24] = Acute toxicity in BALB/c mouse assessed as body weight loss at 100 mg/kg, ig administered as single dose measured every day for 14 days; format: organism-based; settings: in vivo, po, 336 h, time 14 day
[25] = Acute toxicity in BALB/c mouse assessed as change in AST level in blood at 100 mg/kg, ig administered as single dose measured after 14 days; format: organism-based; settings: in vivo, po, 336 h, time 14 day
[26] = Acute toxicity in BALB/c mouse assessed as adverse effect at 100 mg/kg, ig administered as single dose measured every day for 14 days; format: organism-based; settings: in vivo, po, 336 h, time 14 day
[27] = Acute toxicity in BALB/c mouse assessed as pathological damage in kidney at 100 mg/kg, ig administered as single dose measured after 14 days by hematoxylin and eosin staining method; format: organism-based; settings: in vivo, po, 336 h, time 14 day
[28] = Acute toxicity in BALB/c mouse assessed as pathological damage in heart at 100 mg/kg, ig administered as single dose measured after 14 days by hematoxylin and eosin staining method; format: organism-based; settings: in vivo, po, 336 h, time 14 day
[29] = Toxicity in BALB/c nude mouse xenografted with human HCT-116 cells assessed as body weight loss at 40 mg/kg, po administered twice a week for 19 days and measured every other day; format: organism-based; settings: in vivo, 456 h, time 19 day
[30] = Toxicity in BALB/c nude mouse xenografted with human HCT-116 cells assessed as body weight loss at 5 mg/kg, po administered twice a week for 19 days and measured every other day; format: organism-based; settings: in vivo, 456 h, time 19 day
HCT-116 [31] = experiment: Antitumor activity in human HCT-116 cells xenografted in BALB/c nude mouse assessed tumor growth inhibition at 20 mg/kg, po administered twice a week for 19 days and measured every measured every other day; format: functional; settings: HCT-116, 456 h, time 19 day, read-out: TGI
HCT-116 [32] = experiment: Antitumor activity in human HCT-116 cells xenografted in BALB/c nude mouse assessed tumor growth inhibition at 10 mg/kg, po administered twice a week for 19 days and measured every other day; format: functional; settings: HCT-116, 456 h, time 19 day, read-out: TGI
[33] = Acute toxicity in BALB/c mouse assessed as pathological damage in liver at 100 mg/kg, ig administered as single dose measured after 14 days by hematoxylin and eosin staining method; format: organism-based; settings: in vivo, po, 336 h, time 14 day

- IC50 (A549): 2140 nM
- IC50 (DLD-1): 520 nM
- IC50 (HCT-15): 1280 nM
- IC50 (Raji): 1060 nM
- IC50 (U-251): 2060 nM
- IC50 (HCT-116 [4]): 400 nM
- IC50 (SW480): 1100 nM
- IC50 (SW-620): 640 nM
- IC50 (MDA-MB-231): 10500 nM
- IC50 (HT-29): 5300 nM
Structure (SMILES): Cc1ccccc1CN1CCn2c1nc(=O)c1c2CCN(Cc2ccccc2)C1
- IC50 at 48 h [1]: > 50000 nM
- Ratio IC50 (HCT-116 [2]): 10
- IC50 at 48 h [3]: > 50000 nM

- bioavailability [5]: 15.2%
- AUC(0-t) (in vivo [6]; in vivo): 894 ng·h/mL
- Tmax [7]: 25.2 min
- AUC(0-t) (in vivo [8]; in vivo): 1960 ng·h/mL
- half-life [9]: 54.6 min
- half-life [10]: 63 min
- MRT last [11]: 51.6 min
- Cmax [12]: 2770 ng/mL
- clearance [13]: 42.7 mL/min/kg
- MRT last [14]: 87.6 min
- Cmax [15]: 566 ng/mL
Structure (SMILES): Cc1ccccc1CN1C(=O)C2=C(CCN(Cc3ccccc3)C2)N2CCN=C12.Cl.Cl.O

Structure (SMILES): Cl.Cl.O.O=c1nc2n(c3c1CN(Cc1ccccc1)CC3)CCN2Cc1ccc(F)c(Br)c1
- Activity [16]: Non-Toxic
- Activity [17]: Non-Toxic
- Activity [18]: Non-Toxic
- bioavailability [5]: 61.1%
- Activity [19]: Non-Toxic
- Activity [20]: Non-Toxic
- Activity [21]: Non-Toxic
- AUC(0-t) (in vivo [6]; plasma): 4270 ng·h/mL
- Tmax [7]: 19.8 min
- AUC(0-t) (in vivo [8]; plasma): 2330 ng·h/mL
- inhibition in vivo at 5 mg/kg (HCT-116 [22]): 56%
- Activity [23]: 23.9%
- half-life [9]: 76.2 min
- half-life [10]: 61.8 min
- MRT last [11]: 33.6 min
- Activity [24]: Non-Toxic
- Activity [25]: Non-Toxic
- Activity [26]: Non-Toxic
- Cmax [12]: 4010 ng/mL
- clearance [13]: 35.7 mL/min/kg
- MRT last [14]: 77.4 min
- Activity [27]: Non-Toxic
- Activity [28]: Non-Toxic
- Cmax [15]: 2790 ng/mL
- Activity [29]: 25%
- Activity [30]: 27.7%
- inhibition in vivo at 20 mg/kg (HCT-116 [31]): 69%
- inhibition in vivo at 10 mg/kg (HCT-116 [32]): 60%
- Activity [33]: Non-Toxic
